Data: US4755513A, “Antimicrobial 1-substituted phenyl-4-oxoquinoline-3-carboxylic acid compounds” (Otsuka Pharmaceutical Company, Limited, priority 1985, dated 1988)
Where two headings read alike, the source gives them in different places.

How the values were obtained:
[1] = tested on: Staphylococcus aureus FDA 209P; assay: MIC by serial dilution method on agar plate; format: cell-based
From the text: (§1) The microorganisms were used in a concentration of 1×10^8 cells/ml (O.D. 660 mμ, 0.07-0.16) and 1×10^6 cells/ml (100 folds dilution).

[2] = tested on: Staphylococcus pyrogens IID S-23; assay: MIC by serial dilution method on agar plate; format: cell-based
From the text: as §1

[3] = tested on: Pseudomonas aeruginosa E-2; assay: MIC by serial dilution method on agar plate; format: cell-based
From the text: (§2) Chemotherapy, 22, 1126-1128 (1974)]. The microorganisms were used in a concentration of 1×10^8 cells/ml (O.D. 660 mμ, 0.07-0.16) and 1×10^6 cells/ml (100 folds dilution).

[4] = tested on: Klebsiella pneumoniae NCTC 9632; assay: MIC by serial dilution method on agar plate; format: cell-based
From the text: as §2

[5] = tested on: Acinetobacter calcoaceticus AC-54; assay: MIC by serial dilution method on agar plate; format: cell-based
From the text: as §2

[6] = tested on: Proteus inconstans IFO 12930; assay: MIC by serial dilution method on agar plate; format: cell-based
From the text: as §2

[7] = tested on: Serratia marcescens IFO 12648; assay: MIC by serial dilution method on agar plate; format: cell-based
From the text: as §2

Escherichia coli No. 29 = assay: MIC by serial dilution method on agar plate; format: cell-based
From the text: as §2

[8] = tested on: Escherichia coli NIHJ JC-2; assay: MIC by serial dilution method on agar plate; format: cell-based
From the text: as §2

[9] = tested on: Pseudomonas aeruginosa ATCC 10145; assay: MIC by serial dilution method on agar plate; format: cell-based
From the text: as §2

[10] = tested on: Proteus morganii IID Kono; assay: MIC by serial dilution method on agar plate; format: cell-based
From the text: as §2

[11] = tested on: Bacillus subtilis ATCC 6633; assay: MIC by serial dilution method on agar plate; format: cell-based
From the text: as §2

[12] = tested on: Streptococcus faecalis IFO 12580; assay: MIC by serial dilution method on agar plate; format: cell-based
From the text: as §2

[13] = Absorption by oral administration in monkey (plasma concentration, thin layer cup bio-assay); format: in vivo; settings: 100 mg/kg;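 further: plasma concentration in γ/ml (µg/mL) rather than the printed ng/mL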
Description: The test compounds were dissolved in 0.1N hydrochloric acid or suspended in 0.5% sodium carboxymethyl cellulose solution. The solution or suspension was administered into stomach of monkey (two monkeys) with cathetel. After the administration of test compounds, the blood was collected from the lower limbs vein at a fixed interval with a syringe treated with heparin. The collected blood was centrifuged at 3,000 r.p.m. for 10 minutes to separate the plasma. The concentration of the test compound was measured by a thin layer cup method (a bio-assay), wherein Bacillus subtilis ATCC 6633 was used as a bacteria for determination. Based on a standard curve, the concentration of test compound in plasma was calculated.

Molecule: CN1CCN(c2cc3c(cc2F)c(=O)c(C(=O)O)cn3-c2ccc(F)cc2)CC1 [A]
- minimum inhibitory concentration (MIC) ([1]; 1 × 10^6 cells/ml): 0.195
- minimum inhibitory concentration (MIC) ([1]; 1 × 10^8 cells/ml): 0.39
- minimum inhibitory concentration (MIC) ([2]; 1 × 10^6 cells/ml): 3.12
- minimum inhibitory concentration (MIC) ([2]; 1 × 10^8 cells/ml): 6.25
- minimum inhibitory concentration (MIC) ([3]; 1 × 10^6 cells/ml): 3.12
- minimum inhibitory concentration (MIC) ([3]; 1 × 10^8 cells/ml): 3.12
- minimum inhibitory concentration (MIC) ([4]; 1 × 10^6 cells/ml): 0.195
- minimum inhibitory concentration (MIC) ([4]; 1 × 10^8 cells/ml): 0.195
- minimum inhibitory concentration (MIC) ([5]; 1 × 10^6 cells/ml): 0.39
- minimum inhibitory concentration (MIC) ([5]; 1 × 10^8 cells/ml): 0.39
- minimum inhibitory concentration (MIC) ([6]; 1 × 10^6 cells/ml): 3.12
- minimum inhibitory concentration (MIC) ([6]; 1 × 10^8 cells/ml): 3.12
- minimum inhibitory concentration (MIC) ([7]; 1 × 10^6 cells/ml): 0.78
- minimum inhibitory concentration (MIC) ([7]; 1 × 10^8 cells/ml): 3.12
- minimum inhibitory concentration (MIC) (Escherichia coli No. 29; 1 × 10^6 cells/ml): 0.097
- minimum inhibitory concentration (MIC) (Escherichia coli No. 29; 1 × 10^8 cells/ml): 0.195
- minimum inhibitory concentration (MIC) ([8]; 1 × 10^6 cells/ml): 0.195
- minimum inhibitory concentration (MIC) ([8]; 1 × 10^8 cells/ml): 0.195
- minimum inhibitory concentration (MIC) ([9]; 1 × 10^6 cells/ml): 3.12
- minimum inhibitory concentration (MIC) ([9]; 1 × 10^8 cells/ml): 3.12
- minimum inhibitory concentration (MIC) ([10]; 1 × 10^6 cells/ml): 0.78
- minimum inhibitory concentration (MIC) ([10]; 1 × 10^8 cells/ml): 0.78
- minimum inhibitory concentration (MIC) ([11]; 1 × 10^6 cells/ml): 0.097
- minimum inhibitory concentration (MIC) ([11]; 1 × 10^8 cells/ml): 0.195

Molecule: 6,8-Difluoro-1-(4-hydroxy-2-fluorophenyl)-7-(1-piperazinyl)-1,4-dihydro-4-oxoquinoline-3-carboxylic acid [Example 5]
- minimum inhibitory concentration (MIC) ([1]; 1 × 10^6 cells/ml): 0.097
- minimum inhibitory concentration (MIC) ([1]; 1 × 10^8 cells/ml): 0.097
- minimum inhibitory concentration (MIC) ([3]; 1 × 10^6 cells/ml): 1.56
- minimum inhibitory concentration (MIC) ([3]; 1 × 10^8 cells/ml): 1.56
- minimum inhibitory concentration (MIC) ([4]; 1 × 10^6 cells/ml): 0.097
- minimum inhibitory concentration (MIC) ([4]; 1 × 10^8 cells/ml): 0.097
- minimum inhibitory concentration (MIC) ([5]; 1 × 10^6 cells/ml): 0.39
- minimum inhibitory concentration (MIC) ([5]; 1 × 10^8 cells/ml): 0.781
- minimum inhibitory concentration (MIC) ([6]; 1 × 10^6 cells/ml): 1.56
- minimum inhibitory concentration (MIC) ([6]; 1 × 10^8 cells/ml): 3.12
- minimum inhibitory concentration (MIC) ([7]; 1 × 10^6 cells/ml): 0.781
- minimum inhibitory concentration (MIC) ([7]; 1 × 10^8 cells/ml): 0.781
- minimum inhibitory concentration (MIC) (Escherichia coli No. 29; 1 × 10^6 cells/ml): < 0.048
- minimum inhibitory concentration (MIC) (Escherichia coli No. 29; 1 × 10^8 cells/ml): 0.097
- minimum inhibitory concentration (MIC) ([8]; 1 × 10^6 cells/ml): < 0.048
- minimum inhibitory concentration (MIC) ([8]; 1 × 10^8 cells/ml): 0.097
- minimum inhibitory concentration (MIC) ([12]; 1 × 10^6 cells/ml): 0.781
- minimum inhibitory concentration (MIC) ([12]; 1 × 10^8 cells/ml): 1.56
- minimum inhibitory concentration (MIC) ([9]; 1 × 10^6 cells/ml): 1.56
- minimum inhibitory concentration (MIC) ([9]; 1 × 10^8 cells/ml): 3.12
- minimum inhibitory concentration (MIC) ([10]; 1 × 10^6 cells/ml): 0.781
- minimum inhibitory concentration (MIC) ([10]; 1 × 10^8 cells/ml): 1.56
- minimum inhibitory concentration (MIC) ([11]; 1 × 10^6 cells/ml): 0.195
- minimum inhibitory concentration (MIC) ([11]; 1 × 10^8 cells/ml): 0.39

Molecule: CN1CCN(c2cc3c(cc2F)c(=O)c(C(=O)O)cn3-c2ccc(O)cc2)CC1 [C]
- minimum inhibitory concentration (MIC) ([1]; 1 × 10^6 cells/ml): < 0.048
- minimum inhibitory concentration (MIC) ([1]; 1 × 10^8 cells/ml): 0.097
- minimum inhibitory concentration (MIC) ([2]; 1 × 10^6 cells/ml): 0.78
- minimum inhibitory concentration (MIC) ([2]; 1 × 10^8 cells/ml): 1.56
- minimum inhibitory concentration (MIC) ([3]; 1 × 10^6 cells/ml): 0.39
- minimum inhibitory concentration (MIC) ([3]; 1 × 10^8 cells/ml): 0.78
- minimum inhibitory concentration (MIC) ([4]; 1 × 10^6 cells/ml): < 0.048
- minimum inhibitory concentration (MIC) ([4]; 1 × 10^8 cells/ml): 0.097
- minimum inhibitory concentration (MIC) ([5]; 1 × 10^6 cells/ml): 0.195
- minimum inhibitory concentration (MIC) ([5]; 1 × 10^8 cells/ml): 0.39
- minimum inhibitory concentration (MIC) ([6]; 1 × 10^6 cells/ml): 0.39
- minimum inhibitory concentration (MIC) ([6]; 1 × 10^8 cells/ml): 0.78
- minimum inhibitory concentration (MIC) ([7]; 1 × 10^6 cells/ml): 0.195
- minimum inhibitory concentration (MIC) ([7]; 1 × 10^8 cells/ml): 0.39
- minimum inhibitory concentration (MIC) (Escherichia coli No. 29; 1 × 10^6 cells/ml): < 0.048
- minimum inhibitory concentration (MIC) (Escherichia coli No. 29; 1 × 10^8 cells/ml): 0.097
- minimum inhibitory concentration (MIC) ([8]; 1 × 10^6 cells/ml): 0.097
- minimum inhibitory concentration (MIC) ([8]; 1 × 10^8 cells/ml): 0.097
- minimum inhibitory concentration (MIC) ([9]; 1 × 10^6 cells/ml): 0.78
- minimum inhibitory concentration (MIC) ([9]; 1 × 10^8 cells/ml): 1.56
- minimum inhibitory concentration (MIC) ([10]; 1 × 10^6 cells/ml): 0.39
- minimum inhibitory concentration (MIC) ([10]; 1 × 10^8 cells/ml): 0.39
- minimum inhibitory concentration (MIC) ([11]; 1 × 10^6 cells/ml): 0.097
- minimum inhibitory concentration (MIC) ([11]; 1 × 10^8 cells/ml): 0.097
- concentration at 0.5 h ([13]; Run 1, 0.5 hour, read-out: Amount of test compd. in plasma): 360 ng/mL
- concentration at 1 h ([13]; Run 1, 1 hour, read-out: Amount of test compd. in plasma): 490 ng/mL
- concentration at 2 h ([13]; Run 1, 2 hour, read-out: Amount of test compd. in plasma): 650 ng/mL
- concentration at 4 h ([13]; Run 1, 4 hour, read-out: Amount of test compd. in plasma): 960 ng/mL
- concentration at 7 h ([13]; Run 1, 7 hour, read-out: Amount of test compd. in plasma): 950 ng/mL
- concentration at 24 h ([13]; Run 1, 24 hour, read-out: Amount of test compd. in plasma): 900 ng/mL
- concentration at 0.5 h ([13]; Run 2, 0.5 hour, read-out: Amount of test compd. in plasma): < 390 ng/mL
- concentration at 1 h ([13]; Run 2, 1 hour, read-out: Amount of test compd. in plasma): < 390 ng/mL
- concentration at 2 h ([13]; Run 2, 2 hour, read-out: Amount of test compd. in plasma): < 390 ng/mL
- concentration at 4 h ([13]; Run 2, 4 hour, read-out: Amount of test compd. in plasma): < 390 ng/mL
- concentration at 7 h ([13]; Run 2, 7 hour, read-out: Amount of test compd. in plasma): < 390 ng/mL
- concentration at 24 h ([13]; Run 2, 24 hour, read-out: Amount of test compd. in plasma): < 390 ng/mL
- concentration at 0.5 h ([13]; average of two runs, 0.5 hour, read-out: Amount of test compd. in plasma, Average): < 280 ng/mL
- concentration at 1 h ([13]; average of two runs, 1 hour, read-out: Amount of test compd. in plasma, Average): < 350 ng/mL
- concentration at 2 h ([13]; average of two runs, 2 hour, read-out: Amount of test compd. in plasma, Average): < 430 ng/mL
- concentration at 4 h ([13]; average of two runs, 4 hour, read-out: Amount of test compd. in plasma, Average): < 580 ng/mL
- concentration at 7 h ([13]; average of two runs, 7 hour, read-out: Amount of test compd. in plasma, Average): < 580 ng/mL
- concentration at 24 h ([13]; average of two runs, 24 hour, read-out: Amount of test compd. in plasma, Average): < 550 ng/mL

Molecule: O=C(O)c1cn(-c2ccc(F)cc2)c2cc(N3CCNCC3)c(F)cc2c1=O [B]
- minimum inhibitory concentration (MIC) ([1]; 1 × 10^6 cells/ml): 0.195
- minimum inhibitory concentration (MIC) ([1]; 1 × 10^8 cells/ml): 0.39
- minimum inhibitory concentration (MIC) ([2]; 1 × 10^6 cells/ml): 3.12
- minimum inhibitory concentration (MIC) ([2]; 1 × 10^8 cells/ml): 6.25
- minimum inhibitory concentration (MIC) ([3]; 1 × 10^6 cells/ml): 0.78
- minimum inhibitory concentration (MIC) ([3]; 1 × 10^8 cells/ml): 0.78
- minimum inhibitory concentration (MIC) ([4]; 1 × 10^6 cells/ml): < 0.048
- minimum inhibitory concentration (MIC) ([4]; 1 × 10^8 cells/ml): 0.097
- minimum inhibitory concentration (MIC) ([5]; 1 × 10^6 cells/ml): 0.195
- minimum inhibitory concentration (MIC) ([5]; 1 × 10^8 cells/ml): 0.39
- minimum inhibitory concentration (MIC) ([6]; 1 × 10^6 cells/ml): 0.78
- minimum inhibitory concentration (MIC) ([6]; 1 × 10^8 cells/ml): 0.78
- minimum inhibitory concentration (MIC) ([7]; 1 × 10^6 cells/ml): 0.195
- minimum inhibitory concentration (MIC) ([7]; 1 × 10^8 cells/ml): 0.39
- minimum inhibitory concentration (MIC) (Escherichia coli No. 29; 1 × 10^6 cells/ml): < 0.048
- minimum inhibitory concentration (MIC) (Escherichia coli No. 29; 1 × 10^8 cells/ml): 0.097
- minimum inhibitory concentration (MIC) ([8]; 1 × 10^6 cells/ml): < 0.048
- minimum inhibitory concentration (MIC) ([8]; 1 × 10^8 cells/ml): 0.097
- minimum inhibitory concentration (MIC) ([9]; 1 × 10^6 cells/ml): 0.78
- minimum inhibitory concentration (MIC) ([9]; 1 × 10^8 cells/ml): 1.56
- minimum inhibitory concentration (MIC) ([10]; 1 × 10^6 cells/ml): 0.195
- minimum inhibitory concentration (MIC) ([10]; 1 × 10^8 cells/ml): 0.195
- minimum inhibitory concentration (MIC) ([11]; 1 × 10^6 cells/ml): 0.097
- minimum inhibitory concentration (MIC) ([11]; 1 × 10^8 cells/ml): 0.195
